MIC, inhibition and IC50 data for 21 compounds are collected here from ChEMBL document CHEMBL5365394, “Design, synthesis and biological evaluation of novel spiro-quinazolinone derivatives as chitin synthase inhibitors and antifungal agents” (Eur J Med Chem, 2023).

Structures are written as SMILES. Converted amounts (≈) assume the structure as drawn. *1 amine or outer side, *2 acyl side, *3 side chain or, on linkers, in order; H or OH if unused. Where a SMILES comes first, the peptide text is derived from it. Bridges are numbered along the chain shown (N, C = ends). [ ]: non-standard residue; d: D form. The star is where a group is joined. hTyr(3S-OH,4S-OH,3'-OSO3H) = N[C@H](C(=O)O)[C@H](O)[C@@H](O)c1ccc(O)c(OS(=O)(=O)O)c1; Orn(4R-OH,5R-OH) = O=C([C@H](C[C@@H](O)[C@@H](O)N[*:3])N[*:1])[*:2]; Pro(3S-OH,4S-Me) = C[C@H]1CN[C@H](C(=O)O)[C@H]1O; X1 = CCCCCOc1ccc(-c2cc(-c3ccc(C(=O)*)cc3)no2)cc1; Gln(3R-OH) = NC(=O)C[C@@H](O)[C@H](N)C(=O)O; Hyp = O=C(O)[C@@H]1C[C@@H](O)CN1

The subject of assay [1] is Candida albicans. Briefly: Antifungal activity against Candida albicans ATCC 76615 assessed as fungal growth inhibition incubated for 24 hrs by two-fold serial dilution method. The format is functional.
In assay [2] the test system is Aspergillus fumigatus. The assay is described as follows: Antifungal activity against Aspergillus fumigatus GIMCC 3.19 assessed as fungal growth inhibition incubated for 24 hrs by two-fold serial dilution method. The format is functional.
The test system of assay [3] is Cryptococcus neoformans. The assay is described as follows: Antifungal activity against Cryptococcus neoformans ATCC 32719 assessed as fungal growth inhibition incubated for 24 hrs by two-fold serial dilution method. It is filed as functional.
Assay [4] deals with Aspergillus flavus. Briefly: Antifungal activity against Aspergillus flavus ATCC 16870 assessed as fungal growth inhibition incubated for 24 hrs by two-fold serial dilution method. It is filed as functional.
Assay [5] relates to Candida tropicalis. The assay is described as follows: Inhibition of Candida tropicalis ATCC 750 chitin synthase using […] as substrate at 300 ug/ml incubated for 1 hr by absorbance based assay relative to control. The following applies: dose 300.0 µg/ml.
Assay [6] is described as follows: Inhibition of Candida tropicalis ATCC 750 chitin synthase using UDP-GlcNAc as substrate incubated for 1 hr by absorbance based assay.
The test system of assay [7] is Candida albicans. The assay is described as follows: Antifungal activity against Micafungin-resistant Candida albicans ATCC 76615R assessed as fungal growth inhibition. It is filed as functional.
Assay [8] deals with Aspergillus flavus. The assay is described as follows: Antifungal activity against Fluconazole-resistant Aspergillus flavus ATCC 16870R assessed as fungal growth inhibition. The format is functional.
The test system of assay [9] is Aspergillus fumigatus. The assay is described as follows: Antifungal activity against Fluconazole-resistant Aspergillus fumigatus GIMCC 3.19R assessed as fungal growth inhibition. It is filed as functional.
Assay [10] concerns Cryptococcus neoformans. The assay is described as follows: Antifungal activity against Fluconazole-resistant Cryptococcus neoformans ATCC 32719R assessed as fungal growth inhibition. The format is functional.
Assay [11] relates to Candida albicans. Briefly: Antifungal activity against Fluconazole-resistant Candida albicans ATCC 76615R assessed as fungal growth inhibition. The format is functional.

Take `O=C(/C=C/C(=O)Nc1ccc2c(c1)C(=O)NC1(CCOC1)N2)Nc1ccc(Cl)cc1` (stereo not given): the minimal inhibitory concentration (MIC) in [1], in assay [2], in [3] and in assay [4] was 128 µg/mL (≈ 300 µM) throughout. Further, in [5], the inhibition (in general, the change of the read-out against control, counted positive when it falls) was found to be 49.2%.

Take `O=C(/C=C/C(=O)Nc1ccccc1F)Nc1ccc2c(c1)C(=O)NC1(CCSC1)N2` (stereo not given): the minimal inhibitory concentration (MIC) (commonly the lowest concentration found to suppress growth) in assay [1] came to 64 µg/mL (≈ 150 µM); in assay [2] it was 128 µg/mL (≈ 300 µM); in assay [3] it was 128 µg/mL (≈ 300 µM); in [4], 128 µg/mL (≈ 300 µM). The IC50 (in general, the point on the concentration scale where inhibition reaches its midpoint) in assay [6] came to 653 µM. The compound further gave an inhibition in assay [5] of 52.2%.

Turning to `O=C(/C=C/C(=O)Nc1ccc2c(c1)C(=O)NC1(CCOC1)N2)Nc1ccc(Br)cc1` (stereo not given), the minimal inhibitory concentration (MIC) worked out at 32 µg/mL (≈ 67.9 µM) in [1], 64 µg/mL (≈ 136 µM) in [2], 32 µg/mL (≈ 67.9 µM) in assay [3] and 64 µg/mL (≈ 136 µM) in assay [4]. Besides, in assay [5], the inhibition came out at 63.1%.

Regarding `O=C(/C=C/C(=O)Nc1ccc2c(c1)C(=O)NC1(CCSC1)N2)Nc1ccc(F)c(Cl)c1` (stereo not given), the MIC in [1] was found to be 16 µg/mL (≈ 34.7 µM); in [2], 64 µg/mL (≈ 139 µM); in [3], 32 µg/mL (≈ 69.4 µM); in assay [4], 32 µg/mL (≈ 69.4 µM). In [6], this compound showed a half-inhibitory concentration (IC50) of 267 µM. The compound further had an inhibition in [5] of 64.4%.

With `CCCCCOc1ccc(-c2cc(-c3ccc(C(=O)N[C@H]4C[C@@H](O)[C@@H](O)NC(=O)[C@@H]5[C@@H](O)[C@@H](C)CN5C(=O)[C@H]([C@H](O)CC(N)=O)NC(=O)[C@H]([C@H](O)[C@@H](O)c5ccc(O)c(OS(=O)(=O)O)c5)NC(=O)[C@@H]5C[C@@H](O)CN5C(=O)[C@H]([C@@H](C)O)NC4=O)cc3)no2)cc1` [MICAFUNGIN] (X1-[Orn(4R-OH,5R-OH)]T[Hyp][hTyr(3S-OH,4S-OH,3'-OSO3H)][Gln(3R-OH)][Pro(3S-OH,4S-Me)]; lactam 1-C), in [7], the minimum inhibitory concentration (MIC) was determined as 256 µg/mL (≈ 202 µM).

Turning to `Cc1cccc(NC(=O)/C=C/C(=O)Nc2ccc3c(c2)C(=O)NC2(CCSC2)N3)c1` (stereo not given), the MIC in assay [1] worked out at 64 µg/mL (≈ 151 µM); in [2], 128 µg/mL (≈ 303 µM); in assay [3], 64 µg/mL (≈ 151 µM); in [4], 128 µg/mL (≈ 303 µM). The compound also gave an IC50 in [6] of 800 µM. The same compound registered an inhibition in [5] of 47.2%.

With `O=C(/C=C/C(=O)Nc1ccc2c(c1)C(=O)NC1(CCSC1)N2)Nc1cccc(Cl)c1` (stereo not given), the minimal inhibitory concentration (MIC) in assay [1] was determined as 32 µg/mL (≈ 72.2 µM); in assay [2], 32 µg/mL (≈ 72.2 µM); in assay [3], 64 µg/mL (≈ 144 µM); in assay [4], 64 µg/mL (≈ 144 µM). In addition, the IC50 in assay [6] was 282 µM. In addition, the inhibition in [5] stood at 60.9%.

Consider `OC(Cn1cncn1)(Cn1cncn1)c1ccc(F)cc1F` [FLUCONAZOLE], for which the MIC in assay [1] turned out to be 2 µg/mL (≈ 6.53 µM); in assay [8], 256 µg/mL (≈ 836 µM); in assay [9] it was 256 µg/mL (≈ 836 µM); in assay [2], 8 µg/mL (≈ 26.1 µM); in [3], 4 µg/mL (≈ 13.1 µM); in assay [10], 256 µg/mL (≈ 836 µM). Also, the values for the minimum inhibitory concentration (MIC) in assay [11] and in assay [4] were 256 µg/mL (≈ 836 µM) and 4 µg/mL (≈ 13.1 µM), respectively.

`O=C(/C=C/C(=O)Nc1ccc2c(c1)C(=O)NC1(CCSC1)N2)Nc1ccc(F)cc1` (stereo not given): the MIC in assay [1] came to 64 µg/mL (≈ 150 µM); in [2] it was 128 µg/mL (≈ 300 µM); in assay [3], 64 µg/mL (≈ 150 µM); in assay [4] it was 128 µg/mL (≈ 300 µM). In [6], this compound returned a half-maximal inhibitory concentration (IC50) of 593 µM. Moreover, the inhibition in assay [5] stood at 54.6%.

Take `O=C(/C=C/C(=O)Nc1ccc2c(c1)C(=O)NC1(CCSC1)N2)Nc1ccccc1` (stereo not given): the MIC was 128 µg/mL (≈ 313 µM) in [1], 128 µg/mL (≈ 313 µM) in [2], 128 µg/mL (≈ 313 µM) in assay [3] and 256 µg/mL (≈ 627 µM) in [4]. Moreover, the IC50 in assay [6] stood at 1870 µM. Also, the inhibition in assay [5] amounted to 44.2%.

As to `O=C(/C=C/C(=O)Nc1ccc2c(c1)C(=O)NC1(CCSC1)N2)Nc1cccc(C(F)(F)F)c1` (stereo not given), the MIC came out at 128 µg/mL (≈ 269 µM) in assay [1], 64 µg/mL (≈ 134 µM) in [2], 64 µg/mL (≈ 134 µM) in assay [3] and 64 µg/mL (≈ 134 µM) in assay [4]. In addition, in assay [6], 353 µM corresponded to half-maximal inhibition (IC50). The compound also registered an inhibition in [5] of 58.1%.

Take `O=C(/C=C/C(=O)Nc1ccc2c(c1)C(=O)NC1(CCSC1)N2)Nc1ccc(Cl)cc1` (stereo not given): the minimal inhibitory concentration (MIC) came to 64 µg/mL (≈ 144 µM) in assay [1], 64 µg/mL (≈ 144 µM) in assay [2], 64 µg/mL (≈ 144 µM) in assay [3] and 128 µg/mL (≈ 289 µM) in assay [4]. Moreover, the IC50 in assay [6] stood at 433 µM. In addition, the inhibition in [5] was found to be 58%.

`O=C(/C=C/C(=O)Nc1ccc2c(c1)C(=O)NC1(CCOC1)N2)Nc1ccc(F)c(Cl)c1` (stereo not given): the MIC in assay [1] turned out to be 128 µg/mL (≈ 288 µM); in assay [2] it was 64 µg/mL (≈ 144 µM); in [3], 128 µg/mL (≈ 288 µM); in [4], 64 µg/mL (≈ 144 µM). Also, the inhibition in [5] came to 56.8%.

As to `O=C(/C=C/C(=O)Nc1ccc2c(c1)C(=O)NC1(CCSC1)N2)Nc1cccc(Br)c1` (stereo not given), the MIC in [1] turned out to be 32 µg/mL (≈ 65.7 µM); in [2], 64 µg/mL (≈ 131 µM); in assay [3], 32 µg/mL (≈ 65.7 µM); in assay [4], 32 µg/mL (≈ 65.7 µM). Further, half-maximal inhibition in assay [6] (IC50) was put at 153 µM. The inhibition in assay [5] was 67.5%.

Take `O=C(/C=C/C(=O)Nc1ccccc1Cl)Nc1ccc2c(c1)C(=O)NC1(CCSC1)N2` (stereo not given): the MIC in assay [1] is 32 µg/mL (≈ 72.2 µM); in [2] it was 64 µg/mL (≈ 144 µM); in assay [3] it was 64 µg/mL (≈ 144 µM); in assay [4], 64 µg/mL (≈ 144 µM). In assay [6], this compound displayed an IC50 of 420 µM. The compound also displayed an inhibition in assay [5] of 58.4%.

`O=C(/C=C/C(=O)Nc1ccccc1Cl)Nc1ccc2c(c1)C(=O)NC1(CCCC1)N2`: the minimal inhibitory concentration (MIC) came to 128 µg/mL (≈ 301 µM) in assay [1], 256 µg/mL (≈ 603 µM) in assay [2], 128 µg/mL (≈ 301 µM) in assay [3] and 256 µg/mL (≈ 603 µM) in [4]. Besides, the inhibition in assay [5] is 38.7%.

`O=C(/C=C/C(=O)Nc1ccccc1Cl)Nc1ccc2c(c1)C(=O)NC1(CCOC1)N2` (stereo not given): the minimal inhibitory concentration (MIC) in assay [1] came to 128 µg/mL (≈ 300 µM); in [2] it was 64 µg/mL (≈ 150 µM); in assay [3] it was 128 µg/mL (≈ 300 µM); in assay [4], 128 µg/mL (≈ 300 µM). The compound also registered an inhibition in assay [5] of 53.7%.

For the compound `O=C(/C=C/C(=O)Nc1ccc2c(c1)C(=O)NC1(CCCC1)N2)Nc1ccc(Cl)cc1`, the MIC in [1] stood at 256 µg/mL (≈ 603 µM); in assay [2], 128 µg/mL (≈ 301 µM); in assay [3], 128 µg/mL (≈ 301 µM); in assay [4], 128 µg/mL (≈ 301 µM). The compound further showed an inhibition in [5] of 43.1%.

In the case of `O=C(/C=C/C(=O)Nc1ccc2c(c1)C(=O)NC1(CCCC1)N2)Nc1ccc(Br)cc1`, the minimum inhibitory concentration (MIC) in [1] was 128 µg/mL (≈ 273 µM); in assay [2], 128 µg/mL (≈ 273 µM); in assay [3], 64 µg/mL (≈ 136 µM); in [4], 128 µg/mL (≈ 273 µM). For the same compound, in assay [5], the inhibition came to 56.4%.

As to `O=C(/C=C/C(=O)Nc1ccc2c(c1)C(=O)NC1(CCCC1)N2)Nc1ccc(F)c(Cl)c1`, the MIC in [1], in assay [2], in [3] and in assay [4] was 128 µg/mL (≈ 289 µM) in each case. This compound also yielded an inhibition in assay [5] of 48.2%.

Consider `Cc1ccc(NC(=O)/C=C/C(=O)Nc2ccc3c(c2)C(=O)NC2(CCSC2)N3)cc1` (stereo not given), for which the minimum inhibitory concentration (MIC) in assay [1] is 64 µg/mL (≈ 151 µM); in assay [2] it was 128 µg/mL (≈ 303 µM); in assay [3] it was 128 µg/mL (≈ 303 µM); in [4], 128 µg/mL (≈ 303 µM). Moreover, the IC50 in [6] is 883 µM. The inhibition in [5] was 48.2%.
